In patent US5081116A, “Cephalosporin derivatives” (Yamanouchi Pharmaceutical Co., Ltd., priority 1989, dated 1992):
Converted amounts (≈) assume the structure as drawn. Like-named read-outs stand apart in the source and are kept apart here.

How the values were obtained:
Escherichia coli 0-1 = experiment: Minimum growth inhibition concentration (antimicrobial activity); assay type: cell-based; settings: 01
Text: (§1) The antimicrobial activity of the 7-[2-(2-amino-4-thiazolyl)-2-(hydroxyimino)acetamido]-3-(1,3-dithiolan-2-yl)-3-cephem-4-carboxylic acid which is such that A of the compounds of the general formula is the hydrogen atom (Compound of Example 1) is shown in Table 1.
(§2) (Minimum Growth Inhibition Concentration, γ/ml)

[1] = test system: Staphylococcus aureus FDA 209P JC-1; experiment: as above; assay type: cell-based; settings: FDA209P
Text: as §1, §2

[2] = test system: Staphylococcus epidermidis IID 866; experiment: as above; assay type: cell-based; settings: IID866
Text: as §1, §2

[3] = test system: Klebsiella pneumoniae ATCC 10031; experiment: as above; assay type: cell-based; settings: ATCC10031
Text: as §1, §2

CAY 1104 = experiment: as above; assay type: cell-based; settings: Enterobacter Faecalis CAY 1104
Text: as §1, §2

[4] = Absorption rate from the digestive tract (urinary and biliary recovery after oral administration); assay type: in vivo; settings: rat, 50 mg/kg, bioassay
Procedure: Further, the absorption rate of the compound of the general formula (I) wherein A is the 1-acetoxyethyl group (Compound of Example 2) from the digestive tract is shown as follows together with the testing method therefor.
An ether-anesthetized rat was fixed with the belly upside and a polyethylene tube was inserted into the bile-duct. The urine was collected from the same rat. After the test compound was orally administered at 50 mg/kg, urine and bile samples were collected within 0-6 hours and also within 6-24 hours. The amounts recovered in the urine and the bile within 24 hours were determined by measuring the test compound concentrations in the urine and the bile by a bioassay method using the standard solution of the test compound prepared with M/15 phosphate buffer.

SMILES	MIC (Escherichia coli 0-1)	MIC [1]	MIC [2]	MIC [3]	MIC (CAY 1104)	dose excreted at 24 h ([4]; bile, read-out: Recovery Rate (%) within 24 hours In the Bile)	dose excreted at 24 h ([4]; urine, read-out: Recovery Rate (%) within 24 hours In the Urine)	dose excreted at 24 h ([4]; urine and bile, urine + bile, read-out: Recovery Rate (%) within 24 hours Total)
Nc1nc(/C(=N/O)C(=O)NC2C(=O)N3C(C(=O)O)=C(C4SCCS4)CS[C@H]23)cs1 (some centres unmarked) [Example 1, (Z)-7-[2-(2-amino-4-thiazolyl)-2-(hydroxyimino)acetamido]-3-(1,3-dithiolan-2-yl)3-cephem-4-carboxylic acid]	0.39 µg/mL (≈ 0.824 µM)	0.39 µg/mL (≈ 0.824 µM)	0.39 µg/mL (≈ 0.824 µM)	0.78 µg/mL (≈ 1.65 µM)	3.13 µg/mL (≈ 6.61 µM)	–	–	–
CC(=O)OC(C)OC(=O)C1=C(C2SCCS2)CS[C@@H]2C(NC(=O)/C(=N\O)c3csc(N)n3)C(=O)N12 (some centres unmarked) [Example 2, 1-acetoxyethyl (Z)-7-[2-(2-amino-4-thiazolyl)-2-(hydroxyimino)acetamido]-3-(1,3-dithiolan-2-yl)-3-cephem-4-carboxylate]	–	–	–	–	–	8.5%	14.1%	22.6%
